Blank lines part the entries; values can stand above or below the molecule they belong to.
Experiments:
[1] = Plasma PK by LC-MS (D2-LA, LA, D2-AA) in the phase I/II trial
Method: (§1) PK samples were obtained predose and at 0.5, 1, 1.5, 2, 4, 6, 8, 12, 16, and 24 hours following the first dose and 14, 28, 29, 30, and 31 days following enrollment. The samples taken on Days 29-31 represent Isotopically modified polyunsaturated fatty acid, ester, thioester, amide, or other prodrug thereof (e.g., 11,11,D2-linoleic acid ethyl ester) washout levels. D2-LA, linoleic acid (LA), deuterated arachidonic acid (D2-AA), and arachidonic acid (ARA) concentrations were measured in the samples.
(§2) Plasma concentrations of 11,11-D2-linoleic acid ethyl ester (combined free acid form and ester form) and non-deuterated analogs were determined by liquid chromatography and mass spectrometry (LCMS). Blood was collected in K2EDTA anticoagulant tubes, centrifuged to obtain plasma and red blood cells (RBCs), and frozen until analyzed. The samples were hydrolyzed to free fatty acids and analyzed by high performance LC-MS by Good Laboratory Practice validated methods. Low-intensity D2 and high-intensity H2 signals were measured with high accuracy at Ricerca Biosciences, using an AB SCIEX 6500 tandem-quadrupole MS. The 13C2 isotopomer signal was used as a calibration standard for 11,11,D2-linoleic acid ethyl ester; a polydeuterated internal standard was utilized. The enzymatic elongation/desaturation metabolite, 13,13-D2-arachidonic acid (D2-AA), was also measured, in plasma and red blood cells (RBCs).

[2] = test system: Friedreich's ataxia patients; test: Friedreich's Ataxia Rating Scale-Neurological (FARS-Neuro); type: in vivo, human
Description: (§3) The primary study objectives were to evaluate the safety and tolerability of orally administered 11,11-D2-linoleic acid ethyl ester. Additional study objectives included identifying the PK of 11,11-D2-linoleic acid ethyl ester following single and multiple oral dose administration and establishing an optimum dose of 11,11-D2-linoleic acid ethyl ester. Additional clinical testing consisted of the Friedreich's Ataxia Rating Scale (FARS)-Neurological point (FARS-Neuro), the timed 25-foot walk (T25FW) with an electronic sensor to measure multiaxis components of motion during the study, and cardiopulmonary exercise testing (CPET). The CPET was performed on an electronically braked cycle ergometer (Lode Corival, Groningen, The Netherlands). […] Heart rate (HR), blood pressure (BP), ratings of perceived exertion (RPE), pulse oximetry, and expired gases were monitored in accord with standard exercise testing guidelines. […] Heart rate was measured by electrocardiogra (Pulse Biomedical, King of Prussia, PA), BP was determined by auscultation, RPE was estimated using the standard 6 to 20 scale, and expired gases were collected through a silicone rubber mask (Hans Rudolph, Shawnee, KS) and analyzed continuously using a metabolic cart (Parvomedics, AQ5 Sandy, UT) Vacumetrics (Ventura, CA). […] All other variables were primarily assessed to monitor patient safety and progress during the exercise trial. […]

[3] = test system: Friedreich's ataxia patients; test: Phase I/II double blind, comparator-controlled trial: safety and tolerability; type: in vivo, human; settings: for Safety and tolerability: oral, 1.8 or 9.0 g/day, FRDA patients
Method: A phase I/II double blind, comparator-controlled trial with 2 doses of 11,11-D2-linoleic acid ethyl ester in Friedreich's ataxia patients (9 subjects in each cohort) was conducted. Subjects were randomized 2:1 to receive either 11,11-D2-linoleic acid ethyl ester (1.8 or 9.0 g/day), or a matching dose of non-deuterated ethyl linoleate as comparator for 28 days.
(§4) The primary study objectives were to evaluate the safety and tolerability of orally administered 11,11-D2-linoleic acid ethyl ester. Additional study objectives included identifying the PK of 11,11-D2-linoleic acid ethyl ester following single and multiple oral dose administration and establishing an optimum dose of 11,11-D2-linoleic acid ethyl ester. Additional clinical testing consisted of the Friedreich's Ataxia Rating Scale (FARS)-Neurological point (FARS-Neuro), the timed 25-foot walk (T25FW) with an electronic sensor to measure multiaxis components of motion during the study, and cardiopulmonary exercise testing (CPET). The CPET was performed on an electronically braked cycle ergometer (Lode Corival, Groningen, The Netherlands). The protocol included: 5 minutes of rest; 3 minutes of an unloaded cycling warm-up; a progressive protocol with increased workload each minute (5-25 watts based on estimated functional capacity); 2 minutes of an unloaded cycling recovery; and 10 minutes of passive recovery. Heart rate (HR), blood pressure (BP), ratings of perceived exertion (RPE), pulse oximetry, and expired gases were monitored in accord with standard exercise testing guidelines. Scc Pescatello et al., Thompson P. ACSM's Guidelines for Exercise Testing and Prescription. Baltimore, MD: Wolters Kluwer; 2014:114-141. Heart rate was measured by electrocardiogra (Pulse Biomedical, King of Prussia, PA), BP was determined by auscultation, RPE was estimated using the standard 6 to 20 scale, and expired gases were collected through a silicone rubber mask (Hans Rudolph, Shawnee, KS) and analyzed continuously using a metabolic cart (Parvomedics, AQ5 Sandy, UT) Vacumetrics (Ventura, CA). Endpoints of interest were peak oxygen consumption (VO2 peak) and peak workload. All other variables were primarily assessed to monitor patient safety and progress during the exercise trial.
The study included male or female participants, aged 18 to 50 years, with a FRDA onset at equal or less than 25 years of age, homozygosity for GAA repeat expansions in FXN, and FARS-Neuro range of 20 to 90 points. Participants were ambulatory (with or without assistive device), capable of performing other assessments/evaluations, with a body mass index (BMI) equal or less than 34 kg/m^2. Subjects were agreeable to dietary restriction coaching from a diet counselor to lower PUFA dietary intake, for maximal incorporation of 11,11-D2-linoleic acid ethyl ester. Sample size was selected to ensure 12 fully evaluable patients for active treatment and 6 patients for the comparator treatment. It was not powered, but considered adequate for a first-in-human trial of 11,11-D2-linoleic acid ethyl ester.
A randomization schedule was generated before the first dosing period by Agility Clinical, Inc. (Carlsbad, CA) that followed their established standard operating procedures regarding generation, security, and distribution of the randomization scheme. Patients who provided informed consent and met all enrollment criteria were randomized into the study. In order to randomize a patient, the site contacted the unblinded statistician at Agility, Inc to identify which kit should be provided to the patient.
Patients were randomly assigned to receive one of two treatments (11,11,D2-linoleic acid ethyl ester or comparator) following a 2:1 ratio, respectively. The study sponsor, investigators, research pharmacy, and patients were blinded to the subject's treatment. […]

[4] = Red blood cell (RBC) concentrations by LC-MS in the phase I/II trial; type: in vivo, human
Method: as §1, §2
The ability of 11,11-D2-linoleic acid ethyl ester to enter the cellular membrane compartment was assessed by measuring 11,11-D2-linoleic acid ethyl ester and LA concentration in RBCs during the 28-day period.

[5] = test system: Friedreich's ataxia patients; test: Timed 25-foot walk (T25FW) with electronic motion sensor or stopwatch; type: in vivo, human
Description: as §3

[6] = test system: Friedreich's ataxia patients; test: Cardiopulmonary exercise testing (CPET): peak workload, VO2max; type: in vivo, human; settings: for Median change from baseline in peak oxygen consumption (VO2max): baseline to day 28, P=0.116
Description: as §4
Four protocol-defined outcomes (peak workload, VO2max, FARS-Neuro, and T25FW) were examined to explore for possible endpoints for future studies in FRDA. Nonparametric statistics were used to compare the results of those receiving 11,11-D2-linoleic acid ethyl ester to comparator. A modified intention-to-treat (mITT) population was used for the VO2max and peak workload testing analysis because 2 subjects were unable to complete the exercise test. One subject was unable to establish required pedal cadence, and the test was terminated at the conclusion of the warm-up at baseline and day 27 and 1 subject had to stop the day 27 testing because the subject's knees were hitting together and the subject was unable to maintain the RPM. […] After Bonferroni adjustment for testing the four outcomes, the change in peak workload between study drug and comparator remained significant (P=0.032). This Bonferroni adjustment is standard in early-stage trials to analyze both prospective or post-hoc data from multiple exploratory efficacy endpoints in order, to determine the most suitable primary endpoint for subsequent pivotal trials.

[7] = drug group, cohort 2 (4.5 g BID), 28 days

Increase of day 28 24-hour AUC when the daily dose was increased 5-fold ([1]; human, in vivo): approximately 4 fold
Time of maximum plasma D2-LA concentration ([1]; in vivo): 8 to 10 h
Time to steady state in the plasma and in RBCs ([1]; in vivo, po): ≤ 28 days
RBC concentration of D2-LA as percentage of total LA (D2-LA plus LA), mean ([4]; cohort 1): 6.52%
RBC concentration of D2-LA as percentage of total LA (D2-LA plus LA), mean ([4]; cohort 2): 25.8%
Mean RBC concentration of D2-LA ([4]; day 28, cohort 1 (1.8 g QD)): 14.6 ± 8.7 µg/mL
Mean RBC concentration of D2-LA ([4]; day 28, cohort 2 (4.5 g BID)): 26.1 ± 19.2 µg/mL
Compound: [2H]C([2H])(/C=C\CCCCC)/C=C\CCCCCCCC(=O)OCC [11,11-D2-linoleic acid ethyl ester]
Median decrease in FARS-Neuro ([2]; baseline to day 28): 4.75 FARS points
Difference in FARS points decrease between drug and placebo groups ([2]; baseline to day 28, P=0.348 ITT): 1.95 FARS points
Diarrhea assessed as "possibly related to study drug" [3, 7]: 3 subjects
Diarrhea assessed as "probably related to study drug" [3, 7]: 1 subject
Subjects who discontinued the study because of steatorrhea ([3]; high-dose group (cohort 2), BMI 15.4, within the first week): One
Safety and tolerability ([3]; 28 days): safe and tolerable
Safety and tolerability ([3]; 28 days, listed as 11,11,D2-linoleic acid ethyl ester): well tolerated
T25FW^−1 time, traditionally measured (by stopwatch) ([5]; P=0.88): no signal of significance
Improvement of stride speed (stride time)^−1 ([5]; electronic motion sensing device on the ankle, 25-foot timed walk, P=0.15 ITT): 7%
Change in VO2max between drug and comparator ([6]; baseline to day 28): 17.5%
Median change from baseline in peak oxygen consumption (VO2max) [6]: 0.14 L/min
Change in peak workload in the drug group at study end-point ([6]; baseline to day 28, mITT): 25.7%
Improvement in peak workload from baseline to day 28 ([6]; study drug (n=10) versus comparator (n=6), mITT, P=0.008): 0.16 watts/kg

Compound: [2H]C([2H])(/C=C\C/C=C\C/C=C\CCCC(=O)O)/C=C\CCCCC [D2-AA, 13,13-D2-arachidonic acid]
Mean plasma concentration of D2-AA ([1]; high dose (4.5 g BID), 72-hour period after the last dose (day 28)): around 22 μg/mL
Plasma concentration of D2-AA (metabolite) ([1]; high dose, predose baseline and day 1, LOQ 1 μg/mL): below or slightly above the LOQ
Plasma concentration of D2-AA (metabolite) ([1]; low dose 11,11-D2-linoleic acid ethyl ester, day 1): below quantitation
Mean plasma concentration of D2-AA, maximum at 32 hours after the last dose ([1]; low dose (1.8 g QD), after day 28): 5530 ng/mL
Mean plasma concentration of D2-AA, maximum at 6 hours after the last dose ([1]; low dose (1.8 g QD), day 28): 3860 ng/mL

Compound: CCCCC/C=C\C/C=C\CCCCCCCC(=O)OCC [comparator, ethyl linoleate, reference compound]
Diarrhea (TEAE) ([3]; both, human, in vivo, 28 days): 1 subject
Median change from baseline in peak oxygen consumption (VO2max) [6]: -0.02 L/min
